Reference: ChEMBL document CHEMBL5727895, “Nitrogen-containing heteroaryl compound and pharmaceutical use thereof” (2020)

Assay: Evaluation of GLUT9 Inhibitory Activity: Uricase/Hyper transiently-transfected human GLUT9 stably expressing cells or mock cells (blank) were seeded in a 96 well plate (Corning) at 1.6×10^5 cells/well, and cultured overnight at 37° C., 5% CO2. D-MEM/high glucose (Wako Pure Chemical Industries, Ltd.) containing 10% Fetal Bovine Serum (Lifetechnology) and 100 units/ml penicillin/100 μg/ml streptomycin (GIBCO) was used as a medium. High K− buffer (129.8 mM KCl, 1.2 mM KH2PO4, 1.2 mM MgSO4.7H2O, 1.3 mM CaCl2. 2H2O, 25 mM HEPES, pH 7.4 with 1 M Tris) and the medium were mixed in equal amount to prepare Assay Buffer. The medium in each well was removed, and the test compound solution (final 1% DMSO) diluted with Assay Buffer was added thereto at 50 μl/well, and the mixture was left stand at room temperature for 30 to 60 min. For the solvent control and blank, Assay Buffer containing DMSO alone was added at 50 μl/well, and the mixture was left stand at room temperature for 30 to 60 min. In addition, uric acid solution (containing [14C]uric acid as a tracer) diluted with Assay Buffer was added to each well at 15 μl/well (final 300 μM uric acid), and the uptake reaction was performed at room temperature for 6 min. After the completion of the reaction, the cells were washed three times with ice-cooled Wash Buffer (Hank's Balanced Salt Solution containing 0.01% Bovine Serum Albumin) at 150 μl/well, and 0.1N aqueous NaOH solution was added thereto at 25 μl/well to dissolve the cell. MicroScint-20 (Perkin-Elmer) was added thereto at 150 μl/well, the plate was shaked, and CPM of [14C] was measured by TopCount NXT (Perkin-Elmer).Data was obtained by deducting average of CPM in blank well from average of CPM in each treated well. The inhibitory rate of the test compound in each concentration was calculated from the following formula: [(A−B)/A]×100, A is data of solvent control, B is data of test compound treatment.

Structure (SMILES)	IC50
CCCc1cnc(-c2ccc(OC)cc2)c(-c2ccc(C(=O)O)cc2)c1	0.089 µM
COc1ccc(-c2ncc(CC3CCCC3)cc2-c2ccc(C(=O)O)cc2)cc1	0.842 µM
COc1ccc(-c2ncc(CC3CCC3)cc2-c2ccc(C(=O)O)cc2)cc1	0.192 µM
CCCCc1cnc(-c2ccc(CC)c(C)c2)c(-c2ccc(C(=O)O)cc2)n1	0.15 µM
CCCCc1cnc(-c2ccc(C)cc2)c(-c2ccc(C(=O)O)cc2)c1	0.34 µM
CCCc1cnc(-c2cc(F)c(OC)c(F)c2)c(-c2ccc(C(=O)O)cc2)c1	0.072 µM
CCCCCc1cnc(-c2ccc(OC)cc2)c(-c2ccc(C(=O)O)cc2)c1	0.0506 µM
CCCCc1cnc(-c2ccc(OC)c(F)c2)c(-c2ccc(C(=O)O)cc2)c1	0.0892 µM
CCCCc1cnc(-c2ccc(OC)cc2)c(-c2ccc(C(=O)O)cc2)n1	0.141 µM
COCCCc1cnc(-c2ccc(OC)cc2)c(-c2ccc(CCC(=O)O)cc2)n1	0.0918 µM
CCCCc1cnc(-c2ccc(OC)cc2)c(-c2ccc(C(=O)O)cc2)c1F	0.0837 µM
COCCCCc1cnc(-c2ccc(C(F)(F)F)cc2)c(-c2ccc(C(=O)O)cc2)n1	0.158 µM
CCCCc1cnc(-c2cc(F)c(OC)c(F)c2)c(-c2ccc(C(=O)O)cc2)c1	0.0578 µM
